Holding throughout (assay): NCI anticancer screen, dose series, 48 h
The subject of assay [1] is SK-MEL-5.
Assay [2] deals with LOX IMVI.
The test system of assay [3] is HT-29.
The subject of assay [4] is K562.
The subject of assay [5] is SF-268.
Assay [6] deals with HCC 2998.
The subject of assay [7] is MOLT-4.
In assay [8] the test system is UO-31.
Assay [9] has as its system NCI-H522.
In assay [10] the test system is SW-620.
In assay [11] the test system is NCI-H460.
Assay [12] deals with HCT-116.
For assay [13], the system named is COLO 205.
The test system of assay [14] is A549.
Assay [15] concerns OVCAR-8.
Assay [16] relates to CCRF-CEM.
The subject of assay [17] is SK-MEL-28.
In assay [18] the test system is NCI-H23.
Assay [19] deals with KM-20L2.
Assay [20] relates to M19-MEL.

These results are taken from ChEMBL document CHEMBL1201862, “PubChem BioAssay data set” (2004).

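Exposure lasted 48 hours, with cells grown in 96-well plates and compounds tested at five concentrations. GI50 = concentration required for 50% inhibition of growth.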 The source made the active and inactive calls. No stated cut-off is given here; in the data, active = GI50 up to about 1.1 µM and inactive = higher.

For `Cc1ccc(S(=O)(=O)N2CCCN(S(=O)(=O)c3ccc(C)cc3)CC2)cc1`, the GI50 was > 100 µM (inactive) in assay [1]; 0.0578 µM (active) in assay [2]; > 100 µM (inactive) in assay [3]; > 100 µM (inactive) in assay [4]; > 100 µM (inactive) in [5]; > 100 µM (inactive) in [6]. Moreover, the GI50 in [7], in assay [8], in assay [9], in [10], in assay [11] and in assay [12] was > 100 µM (inactive) in each case. The GI50 was > 100 µM (inactive) in [13]; > 10 µM (inactive) in assay [14]; > 100 µM (inactive) in assay [15]; > 100 µM (inactive) in assay [16]; > 100 µM (inactive) in [17]; > 100 µM (inactive) in assay [18].

`COC(=O)C1C(C(=O)OC)N(Cc2ccccc2)C(=O)N1Cc1ccccc1` (configuration not stated): the GI50 was 58.5 µM (inactive) in assay [1]; > 100 µM (inactive) in assay [2]; > 100 µM (inactive) in [3]; 45.6 µM (inactive) in assay [4]; > 100 µM (inactive) in assay [5]; > 100 µM (inactive) in [6]. The GI50 is 22.8 µM (inactive) in assay [7]; 87.7 µM (inactive) in [8]; 37.5 µM (inactive) in assay [9]; > 100 µM (inactive) in [10]; 69.5 µM (inactive) in assay [11]; > 100 µM (inactive) in assay [12]. Also, the GI50 in assay [13] was > 100 µM (inactive); in [14], > 100 µM (inactive); in assay [15], > 100 µM (inactive); in assay [16], 57.4 µM (inactive); in [17] it was > 100 µM (inactive); in [18], 75.5 µM (inactive).

As for `CC(=O)OC1(C#N)CC2OC1C1C2N=NN1C(=O)OC(C)(C)C` (configuration not stated), the GI50 in assay [1] was 35.3 µM (inactive); in assay [2], 11.5 µM (inactive); in assay [3], 39.4 µM (inactive); in [19], 55.8 µM (inactive); in [4], 33.5 µM (inactive); in assay [5], 37.1 µM (inactive). Also, the GI50 was 16.5 µM (inactive) in assay [20]; 44.5 µM (inactive) in assay [6]; 50.1 µM (inactive) in assay [7]; 73.3 µM (inactive) in [8]; > 100 µM (inactive) in [9]; 30.7 µM (inactive) in assay [10]. Further, the GI50 in [11] was 32 µM (inactive); in assay [12], 12.5 µM (inactive); in assay [13] it was > 100 µM (inactive); in assay [14], 34.4 µM (inactive); in assay [15], 34.6 µM (inactive); in [16], 15.2 µM (inactive). In addition, the GI50 in [17] was 28.8 µM (inactive); in assay [18] it was 29.6 µM (inactive).

For `CCC(C(=O)c1ccc(OC)c(OC)c1)N(C(=O)C(F)(F)F)C(C)c1ccccc1` (configuration not stated), the GI50 is > 100 µM (inactive) in [1]; > 100 µM (inactive) in assay [2]; > 100 µM (inactive) in assay [3]; > 100 µM (inactive) in assay [4]; 83.9 µM (inactive) in assay [5]; > 100 µM (inactive) in assay [6]. The GI50 in [7], in assay [8], in assay [9], in assay [10], in assay [11] and in assay [12] was > 100 µM (inactive) in each case. The GI50 in [13], in assay [14], in assay [15], in assay [16] and in assay [17] was > 100 µM (inactive) in each case.

For the molecule `Cc1nc2[nH]ncn2c(=O)c1CCCl`, the GI50 in [1], in assay [2], in assay [3], in assay [4], in [5] and in assay [6] was > 10 µM (inactive) in each case. Also, the GI50 in assay [7], in assay [8], in assay [9], in [10], in assay [11] and in [12] was > 10 µM (inactive) in each case. The GI50 in assay [13], in assay [14], in assay [15], in [16], in assay [17] and in assay [18] was > 10 µM (inactive) in each case.

On to `COc1ccc(C2COc3c(ccc(O)c3C)C2)cc1OC` (configuration not stated), for which the GI50 was 11.7 µM (inactive) in [1]; 12.9 µM (inactive) in [2]; 65.8 µM (inactive) in [3]; 91.6 µM (inactive) in assay [19]; 59.6 µM (inactive) in assay [4]; 106 µM (inactive) in assay [5]. Besides, the GI50 in assay [20] was 83 µM (inactive); in [6], 27.9 µM (inactive); in assay [7], 29.2 µM (inactive); in [8], 66.1 µM (inactive); in assay [9], 39.7 µM (inactive); in [10] it was 81.3 µM (inactive). For the same molecule, the GI50 in assay [11] was 62.7 µM (inactive); in [12] it was 48.3 µM (inactive); in [13], 61.7 µM (inactive); in assay [14] it was 60.8 µM (inactive); in [15] it was 113 µM (inactive); in [16], 40.7 µM (inactive). For the same molecule, the GI50 in assay [17] was 121 µM (inactive); in [18], 67.8 µM (inactive).

In the case of `CC(C)(O)[C@H](CCO)O[Si](c1ccccc1)(c1ccccc1)C(C)(C)C`, the GI50 in [1] was 14.2 µM (inactive); in [2], 11.1 µM (inactive); in assay [3] it was 11.1 µM (inactive); in assay [19] it was 11.2 µM (inactive); in assay [4], 7.74 µM (inactive); in [5], 10.5 µM (inactive). The GI50 was 14.9 µM (inactive) in assay [20]; 6.01 µM (inactive) in [6]; 4.25 µM (inactive) in assay [7]; 11 µM (inactive) in [8]; 6.67 µM (inactive) in assay [9]; 12.8 µM (inactive) in assay [10]. Besides, the GI50 in assay [11] is 11.2 µM (inactive); in assay [12], 4.9 µM (inactive); in assay [13] it was 14.4 µM (inactive); in [14], 7.35 µM (inactive); in [15], 10.9 µM (inactive); in assay [16], 10.6 µM (inactive). Moreover, the GI50 in [17] was 15.2 µM (inactive); in [18], > 10 µM (inactive).

As to `COc1ccc(/C(Cl)=C(\C=O)c2ccccc2)cc1OC`, the GI50 in assay [1] is 25.4 µM (inactive); in assay [2], 13.2 µM (inactive); in [3], 28.1 µM (inactive); in [19] it was 44 µM (inactive); in [4], 19.2 µM (inactive); in assay [5] it was 33.1 µM (inactive). In addition, the GI50 was 13.6 µM (inactive) in [20]; 38.5 µM (inactive) in [6]; 6.85 µM (inactive) in [7]; 13.5 µM (inactive) in [8]; 7.1 µM (inactive) in assay [9]; 12.9 µM (inactive) in assay [10]. Moreover, the GI50 in assay [11] was 28.8 µM (inactive); in assay [12], 23.4 µM (inactive); in [13] it was 10.1 µM (inactive); in assay [14], 38.7 µM (inactive); in assay [15], 12.7 µM (inactive); in assay [16], 15.1 µM (inactive). Besides, the GI50 in [18] is 15.2 µM (inactive).

With `C=C1C(=O)O[C@@H]2OC3(C)CCC4C(C)CCC1C42OO3` (some centres not stated), the GI50 in assay [1] is 4.88 µM (inactive); in assay [2], 2.36 µM (inactive); in assay [3], 2.67 µM (inactive); in assay [4], 2.07 µM (inactive); in [5], 2.94 µM (inactive); in assay [20], 3.49 µM (inactive). Further, the GI50 is 13.1 µM (inactive) in [6]; 1.52 µM (inactive) in [7]; 9.84 µM (inactive) in assay [8]; 1.7 µM (inactive) in assay [9]; 3.05 µM (inactive) in assay [10]; 2.38 µM (inactive) in [11]. Moreover, the GI50 was 1.53 µM (inactive) in [12]; 3.46 µM (inactive) in assay [13]; 4.99 µM (inactive) in assay [14]; 3.09 µM (inactive) in [15]; 1.47 µM (inactive) in [16]; 11.5 µM (inactive) in assay [17]. In [18], the GI50 is 5.6 µM (inactive).

For `CC(=O)OCC1OC(NC(=O)N(CCCl)N=O)C(OC(C)=O)C(OC(C)=O)C1OC(C)=O` (configuration not stated), the GI50 was > 31.6 µM (inactive) in assay [1]; 44.8 µM (inactive) in [2]; > 100 µM (inactive) in [3]; > 100 µM (inactive) in assay [19]; > 100 µM (inactive) in assay [4]; > 80.9 µM (inactive) in assay [5]. Besides, the GI50 is > 100 µM (inactive) in assay [20]; > 100 µM (inactive) in assay [6]; > 31.6 µM (inactive) in assay [7]; > 100 µM (inactive) in [8]; > 100 µM (inactive) in assay [9]; > 100 µM (inactive) in [10]. Further, the GI50 in assay [11] is > 83.8 µM (inactive); in assay [12], > 100 µM (inactive); in [13], > 100 µM (inactive); in [14] it was > 100 µM (inactive); in assay [15], > 100 µM (inactive); in assay [16], > 100 µM (inactive). The GI50 in [17] and in [18] was > 100 µM (inactive) throughout.

On to `NC(CCCCCP(=O)(O)O)C(=O)O` (configuration not stated) [AP-7], for which the GI50 in assay [1], in [2], in assay [3], in [4], in assay [5] and in assay [6] was > 100 µM (inactive) throughout. For the same molecule, the GI50 in assay [7], in assay [8], in [9], in [10], in assay [11] and in assay [12] was > 100 µM (inactive) in each case. Further, the GI50 in [13], in assay [14], in assay [15], in assay [16], in assay [17] and in assay [18] was > 100 µM (inactive) in each case.
